Laboratory results as given in paper PMC7587356, “High-Throughput Screening for Inhibitors of the SARS-CoV-2 Protease Using a FRET-Biosensor” (Molecules, 2020).
Like-named read-outs stand apart in the source and are kept apart here.

Molecular target: SARS-CoV-2 3CLpro (Severe acute respiratory syndrome coronavirus 2, UniProt P0DTD1)
Assay: biochemical
Type: biochemical
Design: Replicate_1 / Replicate_2 / mean / mean (LOPAC_screen_w_protease): unit not given here
Details: for inhibition at 5 µM: 4 h
[1] = sheet LOPAC_screen_w_protease, primary screen with protease, 5 µM, mean of two replicates
[2] = sheet LOPAC_screen_w_protease, primary screen with protease, 5 µM, replicate 1
[3] = sheet LOPAC_screen_w_protease, primary screen with protease, 5 µM, replicate 2
[4] = LOPAC1280 primary screen with protease, 5 µM compound, mean of two replicates
[5] = LOPAC1280 primary screen with protease, 5 µM compound, replicate 1
[6] = LOPAC1280 primary screen with protease, 5 µM compound, replicate 2
[7] = sheet LOPAC_screen_w_protease, primary screen of LOPAC1280 at 5 µM with protease, mean of the two replicates
[8] = sheet LOPAC_screen_w_protease, primary screen of LOPAC1280 at 5 µM with protease, replicate 1
[9] = sheet LOPAC_screen_w_protease, primary screen of LOPAC1280 at 5 µM with protease, replicate 2
[10] = sheet LOPAC_screen_w_protease, primary screen with protease, compound at 5 µM, mean of two replicates
[11] = sheet LOPAC_screen_w_protease, primary screen with protease, compound at 5 µM, replicate 1
[12] = sheet LOPAC_screen_w_protease, primary screen with protease, compound at 5 µM, replicate 2

SMILES: COc1ccc2cc([C@H](C)C(=O)[O-])ccc2c1.[Na+] [(-)-Naproxen sodium]
- Replicate_2: -1.573
- mean: 0.4756

SMILES: C=C(C)[C@H]1CC=C(C(=O)O)CC1 [(-)-Perillic acid]
- mean [1]: -0.8057
- Replicate_1 [2]: 1.127
- Replicate_2 [3]: -2.738

SMILES: CNC(=O)Oc1ccc2c(c1)[C@]1(C)CCN(C)[C@@H]1N2C [(-)-Physostigmine]
- inhibition at 5 µM (sheet LOPAC_screen_w_protease, primary screen of LOPAC1280 at 5 µM with protease, mean of the two replicates, read-out: mean): 3.4%
- inhibition at 5 µM (sheet LOPAC_screen_w_protease, primary screen of LOPAC1280 at 5 µM with protease, replicate 1, read-out: Replicate_1): 5.4%
- inhibition at 5 µM (sheet LOPAC_screen_w_protease, primary screen of LOPAC1280 at 5 µM with protease, replicate 2, read-out: Replicate_2): 1.4%

SMILES: C[N+]1(C)[C@@H]2C[C@@H](OC(=O)[C@H](CO)c3ccccc3)C[C@H]1[C@@H]1O[C@@H]12 [(-)-Scopolamine methyl bromide]
- inhibition at 5 µM (sheet LOPAC_screen_w_protease, LOPAC1280 primary screen at 5 µM, with protease, mean of two replicates, read-out: mean): -1.17%
- inhibition at 5 µM (sheet LOPAC_screen_w_protease, LOPAC1280 primary screen at 5 µM, with protease, replicate 1, read-out: Replicate_1): 0.833%
- inhibition at 5 µM (sheet LOPAC_screen_w_protease, LOPAC1280 primary screen at 5 µM, with protease, replicate 2, read-out: Replicate_2): -3.16%

SMILES: CCN1CCC[C@H]1CNC(=O)c1cc(S(N)(=O)=O)ccc1OC [(-)-Sulpiride]
- inhibition at 5 µM (LOPAC1280 primary screen with protease, 5 µM compound, replicate 1, read-out: Replicate_1 (LOPAC_screen_w_protease)): 0.997%
- mean (LOPAC_screen_w_protease) [4]: 1.652

SMILES: Cl.c1ccc([C@H]2CN3CCSC3=N2)cc1 [(-)-Tetramisole hydrochloride]
- Replicate_1: 0.0709
- Replicate_2: 1.236
- mean: 0.6536

SMILES: CN(Cc1cnc2nc(N)nc(N)c2n1)c1ccc(C(=O)N[C@@H](CCC(=O)O)C(=O)O)cc1 [(-)Amethopterin]
- mean (LOPAC_screen_w_protease) (LOPAC1280 primary screen with protease, 5 µM compound, mean of the two replicates): 2.014
- Replicate_1 (LOPAC_screen_w_protease) [5]: 2.356
- Replicate_2 (LOPAC_screen_w_protease) [6]: 1.671

SMILES: NC/C=C/C(=O)O [(E)-4-amino-2-butenoic acid]
- mean (LOPAC_screen_w_protease) [4]: 1.558
- Replicate_1 (LOPAC_screen_w_protease) [5]: 1.878
- Replicate_2 (LOPAC_screen_w_protease) [6]: 1.238

SMILES: O=c1[nH]c(=O)n([C@H]2C[C@H](O)[C@@H](CO)O2)cc1/C=C/Br [(E)-5-(2-Bromovinyl)-2'-deoxyuridine]
- mean [7]: 3.159
- Replicate_1 [8]: 2.158
- Replicate_2 [9]: 4.161

SMILES: CS(=O)(=O)O.Cc1c(C(=O)c2cccc3ccccc23)c2cccc3c2n1[C@H](CN1CCOCC1)CO3 [(R)-(+)-WIN 55,212-2 mesylate]
- mean [1]: -0.1611
- Replicate_1 [2]: -0.3938
- Replicate_2 [3]: 0.07161

SMILES: N[C@H](C(=O)O)c1cc(O)cc(O)c1 [(S)-3,5-Dihydroxyphenylglycine]
- mean [7]: 3.456
- Replicate_1 [8]: 2.928
- Replicate_2 [9]: 3.983

SMILES: CC[C@@]1(O)C(=O)OCc2c1cc1n(c2=O)Cc2cc3ccccc3nc2-1 [(S)-(+)-Camptothecin]
- mean [7]: 3.282
- Replicate_1 [8]: 4.077
- Replicate_2 [9]: 2.488

SMILES: OC[C@H]1O[C@@H](n2cnc3c(N[C@H]4CC5CCC4C5)ncnc32)[C@H](O)[C@@H]1O (stereo partly drawn) [(S)-ENBA]
- mean [10]: 2.65
- Replicate_1 [11]: 4.26
- Replicate_2 [12]: 1.041

SMILES: C[C@](N)(CCP(=O)(O)O)C(=O)O.Cl [(S)-MAP4 hydrochloride]
- mean [7]: 4.027
- Replicate_1 [8]: 4.444
- Replicate_2 [9]: 3.611

SMILES: C/C=C1\C(=O)C[C@H]2[C@@H]3CCC4=CC(=O)CC[C@]4(C)[C@H]3CC[C@]12C [(Z)-Gugglesterone]
- mean [7]: 3.352
- Replicate_1 [8]: 5.164
- Replicate_2 [9]: 1.54

SMILES: Cl.NC[C@@H]1O[C@H](C23CC4CC(CC(C4)C2)C3)Cc2c1ccc(O)c2O [A-77636 hydrochloride]
- mean (LOPAC screen with protease) (sheet LOPAC_screen_w_protease, primary screen at 5 µM, mean of two replicates): 61.6634
- Replicate_1 (LOPAC screen with protease) (sheet LOPAC_screen_w_protease, primary screen at 5 µM, replicate 1): 62.3885
- Replicate_2 (LOPAC screen with protease) (sheet LOPAC_screen_w_protease, primary screen at 5 µM, replicate 2): 60.9383

SMILES: CCS(=O)(=O)Nc1cccc(C(=C2CCCCC2)c2c[nH]cn2)c1 [A-315456]
- mean (sheet LOPAC_screen_w_protease, LOPAC1280 primary screen at 5 µM, with protease, mean of the two replicates): 0.823
- Replicate_1 (sheet LOPAC_screen_w_protease, LOPAC1280 primary screen at 5 µM, with protease, replicate 1): 1.277
- Replicate_2 (sheet LOPAC_screen_w_protease, LOPAC1280 primary screen at 5 µM, with protease, replicate 2): 0.3687

SMILES: CC1=C(C)C(=O)C(CCCCC#CCCCC#CCO)=C(C)C1=O [AA-861]
- inhibition at 5 µM (sheet LOPAC_screen_w_protease, primary screen with protease, mean of two replicates, read-out: mean): 2.27%
- inhibition at 5 µM (sheet LOPAC_screen_w_protease, primary screen with protease, replicate 1, read-out: Replicate_1): 3.11%
- inhibition at 5 µM (sheet LOPAC_screen_w_protease, primary screen with protease, replicate 2, read-out: Replicate_2): 1.43%

SMILES: CNC(=O)[C@H]1O[C@@H](n2cnc3c(NCc4ccc(N)cc4)ncnc32)[C@H](O)[C@@H]1O [AB-MECA]
- mean [10]: 2.5809
- Replicate_1 [11]: 2.895
- Replicate_2 [12]: 2.266
